# Assay results from PubChem BioAssay (NCI).
#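 Assay format: 96-well plates, 48-hour exposure. GI50 is the concentration that inhibits growth by half. TGI is the concentration that stops growth completely.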
# Assays:
# Assay in all cases: growth of human tumour cells (NCI), 48 h
# EKVX NSCLC = tested on: EKVX NSCLC
# HL-60(TB) leukemia = tested on: HL-60(TB) leukemia
# HOP-62 NSCLC = tested on: HOP-62 NSCLC
# KM12 colon = tested on: KM12 colon
# M14 melanoma = tested on: M14 melanoma
# NCI-H522 lung = tested on: NCI-H522 lung
# SK-MEL-5 melanoma = tested on: SK-MEL-5 melanoma
# SN12C renal = tested on: SN12C renal
# SNB-75 CNS = tested on: SNB-75 CNS
# SW-620 colon = tested on: SW-620 colon
Structure (SMILES),GI50 (EKVX NSCLC) [µM],TGI (EKVX NSCLC) [µM],GI50 (HL-60(TB) leukemia) [µM],TGI (HL-60(TB) leukemia) [µM],GI50 (HOP-62 NSCLC) [µM],TGI (HOP-62 NSCLC) [µM],GI50 (KM12 colon) [µM],TGI (KM12 colon) [µM],GI50 (M14 melanoma) [µM],TGI (M14 melanoma) [µM],GI50 (NCI-H522 lung) [µM],TGI (NCI-H522 lung) [µM],GI50 (SK-MEL-5 melanoma) [µM],TGI (SK-MEL-5 melanoma) [µM],GI50 (SN12C renal) [µM],TGI (SN12C renal) [µM],GI50 (SNB-75 CNS) [µM],TGI (SNB-75 CNS) [µM],GI50 (SW-620 colon) [µM],TGI (SW-620 colon) [µM]
C=C1C(=O)O[C@H]2[C@H]1CC/C(COC(=O)c1cccnc1N)=C\CC[C@@]1(C)O[C@@H]21,3.21,25.1,0.262,0.749,4.89,18.6,3.19,11.8,1.12,3.59,0.379,2,2.9,12.5,2.01,10.9,3.16,17.8,0.583,3.82
Cc1ccc(N(C=O)c2c([N+](=O)[O-])cc([N+](=O)[O-])c3c2=[N+]([O-])CN=3)cc1,–,> 100,–,61.3,–,> 100,–,> 100,–,44.8,–,48.2,–,30.1,–,> 100,–,95.2,–,> 100
CN1CCN(CCCNC(=O)c2c3c(n4ccccc24)C(=O)c2ncccc2C3=O)CC1,1.61,5.94,2.23,5.76,0.966,13.5,1.28,19.5,1.21,2.6,1.01,3.86,0.547,1.54,1.42,3.61,3.92,16.3,0.578,9.49
Cc1cccc(NC(=O)C(=O)C(C2OC(=O)c3ccccc32)[N+](=O)[O-])c1C (stereo not given),–,46.3,–,6.94,–,31.1,–,26.9,–,26.7,–,4.2,–,19.2,–,18.9,–,19.7,–,20.9
CN(C)c1ccc(/C=C(\C#N)c2cc3ccccc3[nH]2)cc1,2.94,> 100,0.455,> 100,1.16,4.54,0.495,> 100,0.551,> 100,0.542,> 100,1.36,32.8,2.37,> 100,1.31,4.59,0.39,61.9
Cn1ncc(C#N)c1-c1ccc2c(c1)CN([C@H](CN)Cc1cccc(F)c1)C2=O,5.63,> 92.1,22.1,47.8,23.6,> 100,0.711,> 100,14.2,57.1,17.6,60.3,12.1,24.9,19.7,> 100,0.0925,3.09,23.3,> 100
CCC12C=CCN(CCc3c([nH]c4ccccc34)/C=C\1)C2 (stereo not given),–,> 100,–,> 100,–,> 100,–,> 100,–,> 100,–,> 100,–,> 100,–,> 100,–,> 100,–,> 100
